Experimental data reported in ChEMBL document CHEMBL1201862, “PubChem BioAssay data set” (2004).
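In this assay, cells in 96-well plates receive the compound at five concentrations for 48 hours. Endpoints are linearly interpolated between the surrounding concentrations. GI50 is the concentration that inhibits growth by half.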 Activity calls are given as the source filed them. No stated cut-off is given here; in the data, active = GI50 up to about 1.1 µM and inactive = higher.

Experiments:
Assay in all cases: NCI tumour cell line growth inhibition, 48 h
786-0 = system: 786-0
A498 = system: A498
A549 = system: A549
ACHN = system: ACHN
BT-549 = system: BT-549
CAKI-1 = system: CAKI-1
CCRF-CEM = system: CCRF-CEM
COLO 205 = system: COLO 205
DU-145 = system: DU-145
EKVX = system: EKVX
HCC 2998 = system: HCC 2998
HCT-116 = system: HCT-116
HCT-15 = system: HCT-15
HL-60 = system: HL-60
HOP-62 = system: HOP-62
HOP-92 = system: HOP-92
HT-29 = system: HT-29
Hs-578T = system: Hs-578T
IGROV-1 = system: IGROV-1
K562 = system: K562
KM12 = system: KM12
LOX IMVI = system: LOX IMVI
M14 = system: M14
MCF7 = system: MCF7
MDA-MB-231 = system: MDA-MB-231
MDA-MB-435 = system: MDA-MB-435
MDA-N = system: MDA-N
MOLT-4 = system: MOLT-4
Malme-3M = system: Malme-3M
NCI-H23 = system: NCI-H23
NCI-H460 = system: NCI-H460
NCI-H522 = system: NCI-H522
NCI/ADR-RES = system: NCI/ADR-RES
OVCAR-3 = system: OVCAR-3
OVCAR-4 = system: OVCAR-4
OVCAR-5 = system: OVCAR-5
OVCAR-8 = system: OVCAR-8
PC-3 = system: PC-3
RPMI-8226 = system: RPMI-8226
RXF 393 = system: RXF 393
SF-268 = system: SF-268
SF-295 = system: SF-295
SF-539 = system: SF-539
SK-MEL-28 = system: SK-MEL-28
SK-MEL-2 = system: SK-MEL-2
SK-MEL-5 = system: SK-MEL-5
SK-OV-3 = system: SK-OV-3
SN12C = system: SN12C
SNB-19 = system: SNB-19
SNB-75 = system: SNB-75
SR = system: SR
SW-620 = system: SW-620
T47D = system: T47D
TK-10 = system: TK-10
U-251 = system: U-251
UACC-257 = system: UACC-257
UACC-62 = system: UACC-62
UO-31 = system: UO-31

## CC(=O)Nc1ccc(C2SCc3nc4ccccc4n32)cc1 (stereo not drawn)
786-0
  GI50: 56.8 µM (inactive)
A498
  GI50: 4.91 µM (inactive)
A549
  GI50: > 100 µM (inactive)
ACHN
  GI50: 96.4 µM (inactive)
BT-549
  GI50: > 35.7 µM (inactive)
CAKI-1
  GI50: 39.2 µM (inactive)
CCRF-CEM
  GI50: > 100 µM (inactive)
COLO 205
  GI50: > 100 µM (inactive)
DU-145
  GI50: > 100 µM (inactive)
EKVX
  GI50: 87.9 µM (inactive)
HCC 2998
  GI50: > 100 µM (inactive)
HCT-116
  GI50: > 100 µM (inactive)
HCT-15
  GI50: 47.3 µM
HL-60
  GI50: 82 µM (inactive)
HOP-62
  GI50: > 100 µM (inactive)
HOP-92
  GI50: 57.7 µM (inactive)
HT-29
  GI50: > 100 µM (inactive)
Hs-578T
  GI50: 41.9 µM (inactive)
IGROV-1
  GI50: > 91 µM (inactive)
K562
  GI50: 66.8 µM (inactive)
KM12
  GI50: > 100 µM (inactive)
LOX IMVI
  GI50: 63.8 µM (inactive)
M14
  GI50: > 100 µM (inactive)
MCF7
  GI50: 57 µM (inactive)
MDA-MB-231
  GI50: 26.2 µM (inactive)
MDA-MB-435
  GI50: > 100 µM (inactive)
MDA-N
  GI50: > 100 µM (inactive)
MOLT-4
  GI50: > 100 µM (inactive)
Malme-3M
  GI50: 34.7 µM (inactive)
NCI-H23
  GI50: 34.6 µM (inactive)
NCI-H460
  GI50: > 100 µM (inactive)
NCI-H522
  GI50: 66.5 µM (inactive)
NCI/ADR-RES
  GI50: 33.5 µM (inactive)
OVCAR-3
  GI50: > 100 µM (inactive)
OVCAR-4
  GI50: 38.4 µM (inactive)
OVCAR-5
  GI50: > 100 µM (inactive)
OVCAR-8
  GI50: 37.7 µM (inactive)
PC-3
  GI50: 87.7 µM (inactive)
RPMI-8226
  GI50: 47.6 µM (inactive)
RXF 393
  GI50: > 100 µM (inactive)
SF-268
  GI50: 55.2 µM (inactive)
SF-295
  GI50: 87.9 µM (inactive)
SF-539
  GI50: > 100 µM (inactive)
SK-MEL-28
  GI50: > 100 µM (inactive)
SK-MEL-2
  GI50: > 100 µM (inactive)
SK-MEL-5
  GI50: 60.1 µM (inactive)
SK-OV-3
  GI50: > 100 µM (inactive)
SN12C
  GI50: > 100 µM (inactive)
SNB-19
  GI50: > 100 µM (inactive)
SNB-75
  GI50: 34.4 µM (inactive)
SR
  GI50: > 77.1 µM (inactive)
SW-620
  GI50: > 100 µM (inactive)
T47D
  GI50: 48.9 µM (inactive)
TK-10
  GI50: 22.6 µM (inactive)
U-251
  GI50: 73.3 µM (inactive)
UACC-257
  GI50: 57.4 µM (inactive)
UACC-62
  GI50: > 100 µM (inactive)
UO-31
  GI50: 44.3 µM (inactive)
